Experimental data from US5770573A, “CS-1 peptidomimetics, compositions and methods of using the same” (Cytel Corporation, priority 1995, dated 1998).
Square brackets hold non-standard residues; d marks the D form. Peptide text beside a SMILES is read from it. * marks the point of attachment. PhAc = O=C(Cc1ccccc1)*

Columns and labels:
[1] = system: rabbit cardiac allograft coronary arteries; assay: Rabbit cardiac allograft model; type: in vivo; on Expression on Coronary Arteries: ICAM-1: key: -: negative; ±: minimal; +: little; ++: moderately abundant; +++: very abundant; on Expression on Coronary Arteries: Macrophages: key: -: negative; ±: minimal; +: little; ++: moderately abundant; +++: very abundant; on Expression on Coronary Arteries: T cells: key: -: negative; ±: minimal; +: little; ++: moderately abundant; +++: very abundant; on Expression on Coronary Arteries: Total Fibronectin: key: -: negative; ±: minimal; +: little; ++: moderately abundant; +++: very abundant
Text: New Zealand white rabbit SPF hearts were allografted into the necks of similar rabbits to assay a graft-vs-host immunorejection model and the affect of a contemplated compound on that immunoinflammatory response.
Experimental animal model New Zealand white female rabbits (Charles River Lab., Saint Laurent, Quebec), between 3.5 and 4 kg underwent heterotopic cardiac transplant following an experimental protocol previously described [Alonso et al., Am. J. Pathol., 87:415-442 (1977); Clausell et al., Circulation, 89:2768-2779 (1994)]. The animals were unselected to favor an HLA-mismatch, the host rabbits were Pasteurella-free and the donors, outbred animals. Both host and donor rabbits were fed Purina 5321-0.5 percent cholesterol diet (Research Diets Inc., New Brunswick, N.J.), a strategy that has proven useful in accelerating the process of allograft arteriopathy [Alonso et al., Am. J. Pathol., 87:415-442 (1977)]. The diet was commenced four days prior to the transplant and continued in the recipient of the transplant until the completion of the experimental period.
The technique of heterotopic cardiac transplantation has been previously described [Clausell et al., Circulation, 89:2768-2779 (1994)]. Briefly, a vertical incision was performed in the anterior aspect of the neck of the recipient rabbit and the left common carotid artery and the ipsilateral external jugular vein were isolated. The cardiac allograft was placed in the neck by anastomosing the aorta end-to-side to the recipient's carotid artery and the pulmonary end-to-side to the recipient's external jugular vein, following a total period of ischemia for the donor hearts of approximately 30 minutes. Postoperative care was in compliance with the Principles of Laboratory Animal Care formulated by the Canadian National Society for Medical Research.
Beginning the day of the transplant, the animals were randomized and treated with either scrambled compound (control group) at 1 mg/kg s.c. or the inhibitor compound at 1 mg/kg s.c. The doses of the compounds were empirically extrapolated to the in vivo model based on preliminary in vitro studies, of Table 1. No other immunosuppression therapy was administered. The grafts were monitored daily by palpation and maintained for 7 to 8 days, a previously described endpoint that was associated with myocardial rejection (impaired cardiac contractility) and development of the allograft arteriopathy in this model [Clausell et al., Circulation, 89:2768-2779 (1994)]. A total of fourteen animals were studied in the control (n=7) and treated (n=7) groups.
Preparation of the hearts The animals were sacrificed using a lethal dose of euthanol (480 mg i.v.) (MTC Pharmaceutical, Cambridge, Oreg.), host and donor hearts were removed, and the coronary arteries were perfused with saline through the aorta, followed by light fixation by perfusion with 2 percent paraformaldehyde (Sigma, St, Louis, Mo.). […] Different sections of the hearts were either saved in 10 percent formalin (BDH Inc., Toronto, ON) for light microscopy studies or immediately frozen in O.T.C. Compound Tissue Tek (Miles Inc., Elkart, In.) for specific immunohistochemistry studies.
Three different paraffin-embedded tissue sections from host and donor hearts from both control and treated rabbits were stained by the Movat pentachrome method for light microscopy. Morphometric analysis was performed using a Zeiss microscope attached to a computer-generated video analysis system (Perceptics Inc., NuVision software), as described in Clausell et al., Circulation, 89:2768-2779 (1994). The number of vessels with intimal lesions were counted in all three heart sections from each animal studied and are expressed as a percentage of the total vessel number.
In the host hearts, 999 vessels in the control group and 1054 vessels in the treated group were analyzed. In the donor hearts, 827 vessels in the control group and 617 vessels in the treated group were analyzed. […]

[2] = system: Porcine peripheral blood lymphocytes; assay: In vitro porcine allograft model: transendothelial lymphocyte migration; type: cell-based; conditions: 10 μg/ml in the medium; IL-1β-stimulated SMC
Experimental: A similar study was carried out in vitro using porcine coronary artery endothelial cells (EC; as are present in the IEL) and smooth muscle cells (SMC; as are present in the medial layer of the artery). The two cell types were cultured using a membrane transwell system, with the SMC on the bottom layer in M-199 medium (Gibco Labs.). The SMC were stimulated with 100 ng/ml of interleukin-1β (IL-1β) for 24 hours prior to the start of the assay. Porcine peripheral blood lymphocytes were separated by Ficoll-Hypaque, radiolabeled and incubated overnight (about 18 hours) on the EC.
Transendothelial lymphocyte migration in the IL-1β-stimulated SMC was observed as compared to unstimulated SMC (p<0.05).

[3] = system: asthmatic sheep; assay: Treatment of asthmatic sheep (Ascaris suum antigen); type: in vivo; conditions: 24 hours after challenge; pre-challenge about 20-23 BU
Experimental: Six asthmatic sheep were treated in a double blind cross-over study. […] This study was carried out generally as described in Abraham et al., J. Clin. Invest., 93:776-787 (1994).
The inhibitor compound used here was Compound ID No. 896.52, N-phenylacetyl-Leu-Asp-Phe-D-Pro-NH2, with a control compound that comprised the previously described compound having the same residues in a scrambled sequence. The vehicle for the nebulized compounds was phosphate-buffered saline. The compounds were administered at a dose of 1 mg/kg each, twice a day for three days prior to challenge, as well as 0.5 hours prior to and four hours post challenge on day 4. Because this was a crossover study, each animal received one or the other treatment, followed by a rest and then the other treatment. Each animal therefore served as its own control.
Post challenge airway responsiveness was also assayed. Here, specific lung resistance, SRL, returned to baseline values 24 hours after challenge, however, the sheep were hyperresponsive to inhaled carbachol at that time.

With `CC(C)C[C@H](NC(=O)[C@H](CC(=O)O)NC(=O)Cc1ccccc1)C(=O)N[C@@H](Cc1ccccc1)C(=O)N1CCC[C@@H]1C(N)=O` [Compound ID No. 1066.02, N-phenylacetyl-Asp-Leu-Phe-D-Pro-NH2, reference compound] (PhAc-DLF[dP]-NH2) the “Expression on Coronary Arteries: ICAM-1” value ([1]; 1 mg/kg s.c., 7 to 8 days) was “+”, the “Expression on Coronary Arteries: Macrophages” value ([1]; 1 mg/kg s.c., 7 to 8 days) was “+” and the “Expression on Coronary Arteries: T cells” value ([1]; 1 mg/kg s.c., 7 to 8 days) was “++”. The “Expression on Coronary Arteries: Total Fibronectin” value ([1]; 1 mg/kg s.c., 7 to 8 days) was “++”, the “Expression on Coronary Arteries: VCAM-1” value ([1]; 1 mg/kg s.c., 7 to 8 days) was “+” and the “Expression on Coronary Arteries: MHC Class II” value ([1]; 1 mg/kg s.c., 7 to 8 days, immunoperoxidase score) was “++”. The “Vessel Intimal Thickening: Percent of Vessels” value ([1]; donor hearts, 1 mg/kg s.c.) was 88%, the “Vessel Intimal Thickening: Severity (Percent of Vessel area)” value ([1]; donor hearts, 1 mg/kg s.c.) was 36% and the “Baseline (rabbit own host heart) of incidence” value ([1]; host heart) was 1%. For the same compound, the “Baseline (rabbit own host heart) of severity” value ([1]; host heart) was 12%, the “reduction of lymphocyte migration” value [2] was “did not reduce migration” and the “PC400, carbachol dosage to increase SRL 4-fold” value [3] was “about 12 BU”.
